Results published in patent publication US9783518B2, “Therapeutic agent and treatment method for ameliorating uremia” (Toray Industries, Inc., priority 2005, dated 2017).
Entries after “also recorded” stand apart in the source; their conditions may differ.

Assays:
[1] = test system: cats with chronic renal failure; experiment: Adverse events during treatment of cats with chronic renal failure; type: in vivo, cat
Experimental: (§1) This pilot clinical test was performed after obtaining informed consent of the owners of the cats (clients) before the start of the test, wherein the clients received explanations about the fact that beraprost sodium had already been approved as a drug for human chronic artery obstruction and had already been marketed, and about the safety thereof. Further, giving first priority to the benefit of the patients and clients, conventional therapeutic methods were also combined appropriately for the individuals with progressed renal failure. Examples of the concomitant drugs employed include synthetic active carbons such as Covalzin, Kremezin and Nefguard; calcium preparations such as calcium carbonate; formula meals such as k/d and low-protein diets; and infusion solutions. However, in cases where there was a rational reason and consent by the owner was obtained, beraprost sodium alone was administered even to the individual with progressed renal failure. On the other hand, drugs thought to influence on the action of beraprost sodium, such as vasodilators (e.g., enalapril), diuretic (e.g., furosemide), drugs which influence on renal blood flow (e.g., dopamine) and steroids (e.g., prednisolone) were not used.
[…] The administration was conducted every day and continued basically for 6 months, and in cases where the owner desired, the administration was continued even after the test period. The Examples of the present invention include both cases where the dosing period was less than 6 months and more than 6 months.

[2] = test system: cats with chronic renal failure; experiment: Clinical score of uremic symptoms (activity + appetite) in cats with chronic renal failure; type: in vivo, cat; conditions: for clinical total score (full points 5): after one month
Experimental: Testing methods for the patients showing uremia caused by chronic renal failure, employed in Example 4 or later, will now be described. The criteria and evaluation items for the cats and dogs with chronic renal failure are as follows: Diagnosis of uremia and chronic renal failure were performed totally taking clinical findings (including findings of uremia) and the results of the blood test, blood biochemical analysis and urinalysis into consideration. As the clinical findings of uremia, existence and degree of polydipsia and diuresis, dehydration, anorexia, weight loss, vomiting symptom and state of dehydration were observed. Existence of chronic renal failure was judged based on the serum Cre value as generally employed. As reference data for grasping the degree of progress of chronic renal failure, BUN value was also monitored.
as §1
Administration of beraprost sodium was conducted by orally administering the tablet with a content of 150 μg/tablet (Example 1) twice a day (300 μg/head/day). The administration was conducted every day and continued basically for 6 months, and in cases where the owner desired, the administration was continued even after the test period. The Examples of the present invention include both cases where the dosing period was less than 6 months and more than 6 months.
Evaluation of degree of improvement of the uremic symptoms was carried out as follows: From the clinical symptoms related to uremia, activity and appetite, which are unlikely to be overlooked and which can be observed universally from before to after the test period, were selected. […] The evaluation was carried out based on the total points (full points were 5 points). Thus, a higher point indicates more improvements in the clinical symptoms.

[3] = test system: dog with chronic renal failure; experiment: Adverse events in dog with chronic renal failure (Case-H); type: in vivo; conditions: 150 μg/capsule oral twice a day alone
Experimental: The subject patient to whom beraprost sodium was to be administered was a female dog (hybrid) of 14 years old with a body weight of 6.4 kg. The patient visited the hospital with chief complaints of anorexia and drastic decrease in activity. Based on the past history, clinical observations and results of clinical test, the dog was diagnosed as chronic renal failure. The clinical score at the first visit was as low as 2 points, and treatment with Covalzin at a dose of 200 mg/BID was started. […] In view of this, after obtaining consent by the client, treatment with Covalzin was stopped, and switched to administration of beraprost sodium alone. Beraprost sodium was diluted with polyethylene glycol (Wako) to attain a dose of 150 μg/capsule, and was divided into capsules (size 5 Shionogi Qualicaps). Beraprost sodium was orally administered twice a day at fasting. […] In the above-described series of therapy, feeding of a formula meal and infusion were not performed at all. […] Based on the above, it was first discovered that in chronic renal failure of dogs, in addition to cats, the effect of beraprost sodium to ameliorate uremic symptoms is clearly shown in spite of the fact that Serum Cre value and BUN value which are markers of renal function indicative of renal failure are continuously worsened.

[4] = test system: rats which spontaneously develops hypertension; conditions: administered together with saline and special diet; cited from earlier work
healthy cats = experiment: Blood test and blood chemical analysis in healthy cats; type: in vivo, cat; conditions: after 7 days BID at 10-100 μg/kg oral
Experimental: In this study, 3 male cats and 2 female cats, totally 5 Japanese cats, aging 3 to 6 years old were used, which were raised in an animal hospital and for which no abnormalities were observed clinically and by blood test. The subject cats were individually placed in each cage in which each cat was allowed to take water ad libitum, and each cat was fed twice a day after measuring the necessary items. For the purpose of acclimatization, the cats were measured for blood pressure noninvasively twice a day for 2 weeks.
Blood test and blood chemical analysis were carried out as follows: Blood was collected before administration of beraprost sodium and on the next day of the termination of continuous administration for 7 days at each dose (the continuous administration of one test compound for 7 days is hereinafter referred to as “1 series”) at fasting, and analyzed. Inspection items in the blood test were RBC, WBC, PCV, Hb and Plat, and those in the blood chemical analysis were AST, ALT, T.P, BUN, Cre, Na, K and Cl.
In each administration series, the same cat was used in each administration series as the subject cat for the correctness of the evaluation of the test drug. To eliminate the influence of the test drug of the previous series, wash out period of 2 weeks were given after the termination of the respective series. […]

[5] = test system: cats with chronic renal failure; experiment: Blood biochemical analysis and urinalysis (BUN, serum Cre, glucose) in cats with chronic renal failure; type: in vivo, cat; conditions: Case-G; for Cre: 40 μg/head/BID
[6] = test system: rat glomerulonephritis models; conditions: prophylactic administration before the nephritis-inducing substance; cited from earlier work

Structure (SMILES): CC#CC[C@@H](C)[C@H](O)/C=C/[C@@H]1[C@H]2c3cccc(CCCC(=O)[O-])c3O[C@H]2C[C@H]1O.[Na+] (mixture of isomers) [beraprost sodium, Sodium rac-(1R,2R,3aS,8bS)-2,3,3a,8b-tetrahydro-2-hydroxy-1-[(E)-(3S,4RS)-3-hydroxy-4-methyloct-1-en-6-ynyl]-1H-cyclopenta[b][1]benzofuran-5-butanoate]
- adverse events such as diarrhea, vomiting ([1]; Case-A, 150 μg oral BID, 6 months): no adverse event
- adverse events ([1]; Case-B, daily administration continued for 1 and half years): no adverse event has been observed at all
- adverse events such as diarrhea, vomiting ([1]; Case-C, 150 μg oral BID alone): no adverse event
- adverse events such as diarrhea, vomiting ([1]; Case-D, 150 μg oral BID alone): no adverse event
- adverse events such as diarrhea, vomiting ([1]; Case-E, 150 μg oral BID, combination therapy): no adverse event
- adverse events such as diarrhea, vomiting ([1]; Case-F, 150 μg oral BID, combination therapy): no adverse event
- adverse events such as diarrhea, vomiting ([1]; Case-G, 40 μg/head/BID): no adverse event
- clinical score (full points 5) ([2]; Case-A, male cat 5 y, 150 μg tablet oral BID alone, first month): 4
- clinical score (full points 5) ([2]; Case-A, 150 μg oral BID alone, second month, maintained for 6 months): 5
- clinical conditions / uremic symptoms at follow up ([2]; Case-A, 6 months after termination (12 months after start)): not observed at all; also recorded: very good
- outcome of uremia and renal failure ([2]; Case-A, 6 months of 150 μg oral BID alone): completely cured
- differences from normal cats in clinical observations and biochemical markers ([2]; Case-A, end of the 6-month dosing period): no differences
- total score of the clinical symptoms (full points 5) ([2]; Case-B, male cat 4 y, 150 μg oral BID alone, 1 month after start, 3 points before): 5 points
- clinical symptoms ([2]; Case-B, first to second month): slight amelioration
- clinical score (full points 5) ([2]; Case-B, from the fourth month): 5 points
- clinical score (full points 5) ([2]; Case-C, female cat 16 y, 150 μg oral BID alone, second week, 2 points before): 4 points
- clinical score (full points 5) ([2]; Case-C, after 2.5 months): 5 points
- clinical score (full points 5) ([2]; Case-C, after the sixth week): 4 points
- clinical score (full points 5) ([2]; Case-C, sixth week): 2 points
- clinical total score (full points 5) ([2]; Case-D, male Siamese cat 17 y, 150 μg oral BID alone, 2 points before): 5 points
- clinical total score (full points 5) ([2]; Case-E, 150 μg oral BID plus Covalzin 200 mg/BID, calcium preparation, formula meal, infusion, 0 point before): 4 points
- dehydration ([2]; Case-E, combination therapy, first about 3 months): completely disappeared
- clinical score (full points 5) ([2]; Case-E, combination therapy, for about 3 months): 5 points
- clinical score (full points 5) ([2]; Case-E, combination without Covalzin from fourth month, for about 2 months): 3 points
- clinical score (full points 5) ([2]; Case-E, combination without Covalzin, 7th to 8th month): 5 points
- clinical score (full points 5) ([2]; Case-F, 150 μg oral BID added to insulin, active carbon, calcium carbonate, first month, continues 10 months): 5 points
- uremic symptoms ([2]; Case-F, combination therapy, after start of beraprost sodium): disappeared; also recorded: quickly improved
- appetite and desire for water ([2]; cats with renal failure, overall): clearly improved
- adverse events such as diarrhea, vomiting [3]: no adverse event; also recorded: no adverse action
- onset of glomerulonephritis (urinary protein excretion, glomerulus tissue image) [4]: prevented
- blood cell count, electrolytes, renal function and liver function (healthy cats): no adverse change was observed
- BUN value ([5]; 40 μg/head/BID tablets alone): almost kept constant
- Cre ([5]; Day 28): 2.79 mg/dL
- Cre ([5]; Day 56): 3.02 mg/dL
- onset of nephritis (urinary excretion of albumin) [6]: prevented
